# Experimental data reported in ChEMBL document CHEMBL1129510, “Toward a novel metal-based chemotherapy against tropical diseases. 2. Synthesis and antimalarial activity in vitro and in vivo of new ruthenium- and rhodium-chloroquine complexes” (J Med Chem, 1996).
# How the values were obtained:
# Format in all cases: functional, organism-based
# Plasmodium berghei = assay: In vitro inhibitory activity against Plasmodium berghei
# Plasmodium falciparum [1] = assay: In vitro inhibitory activity against Plasmodium falciparum FCB2
# Plasmodium falciparum [2] = assay: In vitro inhibitory activity against Plasmodium falciparum FcB1
IC50 (Plasmodium berghei; Plasmodium berghei) [nM],IC50 (Plasmodium berghei) [nM],IC50 (Plasmodium falciparum [1]) [nM],IC50 (Plasmodium falciparum [2]) [nM],Compound
72,,,,CCN(CC)CCCC(C)Nc1ccnc2cc(Cl)ccc12 (centres undefined) [CHLOROQUINE PHOSPHATE]
,18,46.5,10.5,Ruthenium-Chloroquine Complex[RuCl2(CQ)]2
